{
  "source": "patent US20090099238A1",
  "about": "“USE OF A PPAR-ALPHA AGONIST TO TREAT PATIENTS SUFFERING FROM WEIGHT GAIN ASSOCIATED WITH A PPAR-GAMMA AGONIST TREATMENT” (priority 2003, published 2009)",
  "key": {"[1]": {"conditions": "fatty Zucker rats; cited from earlier work"}, "[2]": {"experiment": "Glycemia in obese Zucker rats under fenofibrate, rosiglitazone or co-administration (Example 1)", "format": "in vivo", "description": "(§1) Male homozygous Zucker rats of 9 to 11 weeks of age and their lean controls were received from Iffa-Credo (France). They were put into individual cages in a temperature-, humidity- and light-controlled room (21-23° C., 12-12 h light-dark cycle). […] After acclimatization, they were randomized into groups of 10, based on body weight.\n(§2) The experimental groups were: Group 1=lean rats, untreated; Group 2=obese rats, treated with the vehicle p.o., twice daily (at 8 a.m. and 8 p.m.); Group 3=obese rats, treated with Fenofibrate, 100 mg/kg, p.o., twice daily (at 8 a.m. and 8 p.m.); Group 4=obese rats, treated with Rosiglitazone. 0.3 mg/kg, p.o., twice daily (at 8 a.m. and 8 p.m.); Group 5=obese rats, treated with Rosiglitazone, 3.0 mg/kg., p.o., twice daily (at 8 a.m. and 8 p.m.); Group 6=obese rats, treated with Fenofibrate, 100 mg/kg and Rosiglitazone, 0.3 mg/kg, p.o., twice daily (at 8 a.m. and 8 p.m.); Group 7=obese rats, treated with Fenofibrate, 100 mg/kg and Rosiglitazone, 3.0 mg/kg, p.o., twice daily (at 8 a.m. and 8 p.m.).\n(§3) The following parameters were monitored: glycemia (mg/dl) and body weight gain (g)."}, "[3]": {"experiment": "Body weight (gain) in obese Zucker rats under fenofibrate, rosiglitazone or co-administration (Example 1)", "format": "in vivo", "description": "as §1, §2, §3"}, "[4]": {"conditions": "Group 3: Fenofibrate 100 mg/kg p.o. twice daily, after 41 days of treatment"}, "[5]": {"conditions": "Group 3: Fenofibrate 100 mg/kg p.o. twice daily, after 69 days of treatment"}, "[6]": {"conditions": "Group 4: Rosiglitazone 0.3 mg/kg p.o. twice daily, after 41 days of treatment"}, "[7]": {"conditions": "Group 4: Rosiglitazone 0.3 mg/kg p.o. twice daily, after 69 days of treatment"}, "[8]": {"conditions": "Group 5: Rosiglitazone 3.0 mg/kg p.o. twice daily, after 41 days of treatment"}, "[9]": {"conditions": "Group 5: Rosiglitazone 3.0 mg/kg p.o. twice daily, after 69 days of treatment"}},
  "data": [
    {"molecule": "COc1ccc(CC2SC(=O)NC2=O)cc1C(=O)NCc1ccc(C(F)(F)F)cc1", "note": "(stereo not drawn) [KRP 297]", "values": [
      {"measurement": "body weight gain (result in words)", "setting": "[1]", "value": "no change in body weight gain"},
      {"measurement": "serum insulin (result in words)", "setting": "[1]", "value": "affected serum triglycerides and insulin"},
      {"measurement": "serum triglycerides (result in words)", "setting": "[1]", "value": "affected serum triglycerides and insulin"}
    ]},
    {"molecule": "CC(C)OC(=O)C(C)(C)Oc1ccc(C(=O)c2ccc(Cl)cc2)cc1", "note": "[Fenofibrate, fenofibrate]", "values": [
      {"measurement": "Glycemia", "setting": "[2]; [4]", "value": "222.2 ± 53.1", "unit": "mg/dL"},
      {"measurement": "Glycemia", "setting": "[2]; [5]", "value": "372.5 ± 78.5", "unit": "mg/dL"},
      {"measurement": "Body Weight", "setting": "[3]; [4]", "value": "357.0 ± 7.9", "unit": "g"},
      {"measurement": "Body Weight", "setting": "[3]; [5]", "value": "380.6 ± 13.7", "unit": "g"}
    ]},
    {"molecule": "CN(CCOc1ccc(CC2SC(=O)NC2=O)cc1)c1ccccn1", "note": "(stereo not drawn) [Rosiglitazone, rosiglitazone]", "values": [
      {"measurement": "Glycemia", "setting": "[2]; [6]", "value": "274.6 ± 56.4", "unit": "mg/dL"},
      {"measurement": "Glycemia", "setting": "[2]; [7]", "value": "446.0 ± 52.4", "unit": "mg/dL"},
      {"measurement": "Glycemia", "setting": "[2]; [8]", "value": "119.6 ± 5.9", "unit": "mg/dL"},
      {"measurement": "Glycemia", "setting": "[2]; [9]", "value": "151.4 ± 6.5", "unit": "mg/dL"},
      {"measurement": "Body Weight", "setting": "[3]; [6]", "value": "538.5 ± 15.8", "unit": "g"},
      {"measurement": "Body Weight", "setting": "[3]; [7]", "value": "615.2 ± 25.9", "unit": "g"},
      {"measurement": "Body Weight", "setting": "[3]; [8]", "value": "601.4 ± 9.3", "unit": "g"},
      {"measurement": "Body Weight", "setting": "[3]; [9]", "value": "721.0 ± 12.3", "unit": "g"}
    ]}
  ]
}
